# Test results from article PMC4790851, “Iminosugars Inhibit Dengue Virus Production via Inhibition of ER Alpha-Glucosidases—Not Glycolipid Processing Enzymes” (PLoS Neglected Tropical Diseases, 2016).
# Like-named read-outs stand apart in the source and are kept apart here.
# What was measured:
# DENV2 strain 16681 [1] = test: In vitro antiviral assay: infectious DENV titer from infected MDMΦs by LLC-MK2 plaque assay; format: cell-based, dengue virus serotype 2
# Glucosyltransferase HL60 = target: T1, Glucosyltransferase HL60 (Homo sapiens, UniProt Q16739); test: In vitro enzyme inhibition; format: biochemical; details: glucosyltransferase isolated from HL60 human promyelocytic cell line; read-out: IC50
# T1 construct: endogenous in cells; host or cells: HL60
# T1 sequence (Q16739 1-394): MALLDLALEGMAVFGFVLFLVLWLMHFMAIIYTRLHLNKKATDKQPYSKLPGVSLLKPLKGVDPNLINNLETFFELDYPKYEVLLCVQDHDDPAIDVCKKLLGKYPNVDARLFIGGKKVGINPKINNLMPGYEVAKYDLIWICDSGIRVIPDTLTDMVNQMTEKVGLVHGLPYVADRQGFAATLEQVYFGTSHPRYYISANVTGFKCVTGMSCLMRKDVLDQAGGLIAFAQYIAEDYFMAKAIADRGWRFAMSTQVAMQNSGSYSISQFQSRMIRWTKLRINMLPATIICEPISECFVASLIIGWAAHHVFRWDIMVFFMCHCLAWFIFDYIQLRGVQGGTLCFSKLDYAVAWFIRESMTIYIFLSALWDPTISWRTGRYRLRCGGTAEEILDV
# [2] = target: T2, Human lysosome α-galactosidase (Homo sapiens, UniProt P06280); test: In vitro enzyme inhibition; format: biochemical; details: concentration required to inhibit the enzyme to 50% activity; read-out: IC50
# T2 sequence (P06280 32-429): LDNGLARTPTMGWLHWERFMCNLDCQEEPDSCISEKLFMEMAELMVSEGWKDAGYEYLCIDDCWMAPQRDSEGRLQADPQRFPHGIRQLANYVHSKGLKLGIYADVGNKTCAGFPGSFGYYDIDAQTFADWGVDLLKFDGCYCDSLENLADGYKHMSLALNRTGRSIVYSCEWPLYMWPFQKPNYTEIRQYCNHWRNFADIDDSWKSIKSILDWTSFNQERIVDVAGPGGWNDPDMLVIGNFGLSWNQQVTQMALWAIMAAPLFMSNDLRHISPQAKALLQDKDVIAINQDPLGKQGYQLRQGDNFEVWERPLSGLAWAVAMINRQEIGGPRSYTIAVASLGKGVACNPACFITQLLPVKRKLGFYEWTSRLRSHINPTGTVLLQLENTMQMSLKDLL
# DENV2 strain 16681 [3] = test: Infectious virus (plaque assay) and total virus (qRT-PCR for DENV RNA) secreted from infected MDMΦs; format: cell-based, dengue virus serotype 2; details: serial dilution, 48 h post-infection, normalized to untreated
# Description: MDMΦ were infected with DENV2 16681 diluted to a multiplicity of infection (MOI) of 1 in X-VIVO10 without supplements for 90 minutes (20°C, with rocking). Upon removal of virus, fresh MDMΦ growth medium without IL-4 but containing serial dilutions of drug or control was placed on the cells, and cells were incubated for 48 hours (37°C, 5% CO2). For collection of infectious virus, supernatant was harvested and centrifuged for 5 minutes (room temperature, 400 x g) to pellet any cells/debris, and supernatants were aliquoted and stored at -80°C until analysis by plaque assay. […]
# Virus titres for samples from human MDMΦ and C6/36 infections were obtained by LLC-MK2 plaque assays as per previous descriptions. […] A second-overlay containing nutrients, low-melting point tissue culture-grade agarose, and neutral red stain [33] was added and allowed to solidify at 20°C before further incubation for 1 day (37°C, 5% CO2) after which plaques were counted by eye. […]
# DENV RNA in cell culture supernatants was isolated according to the manufacturer’s protocol for Direct-zol RNA MiniPrep Kit (Zymo Research) and assayed by reverse transcription-real time polymerase chain reaction (qRT-PCR) on an Applied Biosystems 7500 real-time PCR system (Life Technologies). […] Samples were read in technical duplicate and compared to a standard curve generated from high-titer viral RNA isolated from C6/36-grown DENV2. […]
# DENV [4] = test system: DENV; set-up: method as in PMID 22020302; details: BHK-21 (hamster kidney) cell culture model; cited from earlier work
# dengue infection = test system: dengue infection; set-up: method as in PMID 24877997, PMID 12355369; details: oral, 400 mg loading dose then 200 mg/dose b.i.d.; cited from earlier work
# DENV [5] = test system: DENV; set-up: method as in PMID 23070155, PMID 23376501, PMID 22020302, PMID 22867971; details: post-exposure therapeutic administration; cited from earlier work
# [6] = Dengue virus, DENV2, LLC-MK2, 48 h, MDMΦs infected with DENV2 MOI 1, drug 48 h, infectious titer by plaque assay, table values with 95% confidence interval in parentheses, read-out: EC50
Structure (SMILES),EC50 (DENV2 strain 16681 [1]; [6]) [µM],"Enhancement (fold improvement of antiviral EC50 versus parent compound) (DENV2 strain 16681 [1]; EC50 parent / EC50 derivative, parent DNJ or castanospermine) [fold]","EC50 (DENV2 strain 16681 [1]; MDMΦs infected with DENV2 MOI 1, drug 48 h, infectious titer by plaque assay, table values with 95% confidence interval in parentheses, read-out: EC50) [µM]",IC50 (Glucosyltransferase HL60) [mM],IC50 [2] [µM],infectious virus and total virus secreted (DENV2 strain 16681 [3]),enhancement of antiviral efficacy over castanospermine (DENV [4]),reduction in viral load or fever burden in patients (dengue infection),protection in lethal mouse models of DENV infection (DENV [5]),"EC50 (DENV2 strain 16681 [1]; Dengue virus, DENV2, LLC-MK2, 48 h, MDMΦs, DENV2, 48 h, read-out: 95% CI for antiviral EC50) [µM]"
"CCCC(=O)O[C@H]1CN2CC[C@H](O)[C@@H]2[C@@H](O)[C@@H]1O [Celgosivir, 6-O-butanoyl-castanospermine]",5,7,5.17,> 1,> 1000,reduces infectious virus (solid lines) and total virus (dashed lines) secreted in a one-to-one ratio,~ 100 fold,failed to demonstrate reduction in viral load or fever burden,protection in lethal mouse models,–
"CCCCN1C[C@H](O)[C@@H](O)[C@H](O)[C@H]1CO [NB-DNJ, N-butyl-DNJ]",10.6,–,–,–,–,reduces infectious virus (solid lines) and total virus (dashed lines) secreted in a one-to-one ratio,–,–,protection in lethal mouse models,7.77 to 14.5
CCCCCCCCCN1C[C@H](O)[C@@H](O)[C@@H](O)[C@H]1CO [NN-DGJ],–,–,–,–,35.5,–,–,–,–,–
